According to patent publication US20090209497A1, “METHOD OF TREATING LYMPHANGIOLEIOMYOMATOSIS (LAM)” (priority 2005, published 2009):

Assay: Doxycycline therapy of a patient with LAM: clinical improvement (FEV1, O2 saturation, 6-min walk test)
Format: in vivo, human
Details: person with LAM, doxycycline 20 mg/day escalated up to 100 mg/day
From the text: FIGS. 1A-1B show successful treatment of LAM with doxycycline: monitoring therapeutic efficacy and measuring clinical improvement. […] Data points represent single measurements taken prior to or during doxycycline therapy. A person was diagnosed with LAM in 1975 after a partial nephrectomy for angiomyolipoma. Although stable for many years, their condition had deteriorated with an FEV1 as low as 0.48 liters (21 percent of predicted), and they were placed on the lung transplant list. […] Based on these elevated MMP levels, doxycycline was initiated at an initial dose of 20 mg/day. Dose escalation (up to 100 mg/day) was determined by monthly urinary MMP profiling (FIG. 1A) and how well the drug was tolerated. […] Telegraphic speech, which was present, resolved.

## C[C@H]1c2cccc(O)c2C(=O)C2=C(O)[C@]3(O)C(=O)C(C(N)=O)=C(O)[C@@H](N(C)C)[C@@H]3[C@@H](O)[C@@H]21 [doxycycline]
Before treatment 21 percent of predicted
  FEV1, percent of predicted: 35% of predicted
Before treatment as low as 0.48 liters
  FEV1 (lung capacity): 0.91 L
